Source: PMC5218480 (PLoS ONE, 2017)

Test system: MV-4-11 cells
Experiment: Gene expression microarray analysis (Affymetrix PrimeView) and GSEA
Format: cell-based, human
Design: RFU PODN (11730768_x_at) / Fold change /veh PODN (11730768_x_at) / RFU LINC00158 (11744669_a_at) / Fold change /veh LINC00158 (11744669_a_at) / RFU DUSP10 (11751237_a_at) / Fold change /veh DUSP10 (11751237_a_at) / RFU ID3 (11757404_x_at) / Fold change /veh ID3 (11757404_x_at) / RFU PLEKHG5 (11737974_s_at) / Fold change /veh PLEKHG5 (11737974_s_at) / RFU LRRC4B (11730491_at) / Fold change /veh LRRC4B (11730491_at) / RFU GIMAP4 (11747438_a_at) / Fold change /veh GIMAP4 (11747438_a_at) / RFU KRT8 (11758183_x_at) / Fold change /veh KRT8 (11758183_x_at) / RFU CNN1 (11734310_a_at) / Fold change /veh CNN1 (11734310_a_at) / RFU VPS37D (11726825_at) / Fold change /veh VPS37D (11726825_at) / RFU C10orf10 (11716522_x_at) / Fold change /veh C10orf10 (11716522_x_at) / RFU KIR2DL2 /// KIR2DL4 /// KIR2DL5A /// KIR2DL5B /// KIR2DS1 /// KIR2DS2 /// KIR2DS3 /// KIR2DS4 /// KIR3DL3 /// KIR3DL3 /// KIR3DS1 (11738374_at) / Fold change /veh KIR2DL2 /// KIR2DL4 /// KIR2DL5A /// KIR2DL5B /// KIR2DS1 /// KIR2DS2 /// KIR2DS3 /// KIR2DS4 /// KIR3DL3 /// KIR3DL3 /// KIR3DS1 (11738374_at) / RFU C1QL1 (11718748_at) / Fold change /veh C1QL1 (11718748_at) / RFU TMPRSS4 (11747572_a_at) / Fold change /veh TMPRSS4 (11747572_a_at) / RFU HAMP (11756126_x_at) / Fold change /veh HAMP (11756126_x_at) / RFU RNFT2 (11725882_a_at) / Fold change /veh RNFT2 (11725882_a_at) / RFU NR4A2 (11747474_a_at) / Fold change /veh NR4A2 (11747474_a_at) / RFU ABCC12 (11746883_a_at) / Fold change /veh ABCC12 (11746883_a_at) / RFU TMEM136 (11760407_x_at) / Fold change /veh TMEM136 (11760407_x_at) / RFU CLDN22 /// WWC2 (11732394_at) / Fold change /veh CLDN22 /// WWC2 (11732394_at) / RFU HLA-DPB1 (11760878_x_at) / Fold change /veh HLA-DPB1 (11760878_x_at) / RFU SPINT1 (11716480_a_at) / Fold change /veh SPINT1 (11716480_a_at) / RFU GAP43 (11754022_s_at) / Fold change /veh GAP43 (11754022_s_at) / RFU A4GNT (11735810_at) / Fold change /veh A4GNT (11735810_at) / RFU PRB3 (11715151_x_at) / Fold change /veh PRB3 (11715151_x_at) / RFU TUBB4B (11761932_at) / Fold change /veh TUBB4B (11761932_at) / RFU CAPN14 (11732068_a_at) / Fold change /veh CAPN14 (11732068_a_at) / RFU TMCC2 (11721928_a_at) / Fold change /veh TMCC2 (11721928_a_at) / RFU IRGQ (11745062_a_at) / Fold change /veh IRGQ (11745062_a_at) / RFU FAM174B (11720279_a_at) / Fold change /veh FAM174B (11720279_a_at) / RFU TMPRSS4 (11748680_a_at) / Fold change /veh TMPRSS4 (11748680_a_at) / RFU FAM212B (11763350_a_at) / Fold change /veh FAM212B (11763350_a_at) / RFU PLEKHG5 (11743358_a_at) / Fold change /veh PLEKHG5 (11743358_a_at) / RFU ZSCAN30 (11745921_a_at) / Fold change /veh ZSCAN30 (11745921_a_at) / RFU CMKLR1 (11741424_a_at) / Fold change /veh CMKLR1 (11741424_a_at) / RFU LOC101060620 /// MAPK8IP1 (11723275_at) / Fold change /veh LOC101060620 /// MAPK8IP1 (11723275_at) / RFU SPTSSB (11747773_x_at) / Fold change /veh SPTSSB (11747773_x_at) / RFU PRSS12 (11739890_at) / Fold change /veh PRSS12 (11739890_at) / RFU BIN1 (11741810_x_at) / Fold change /veh BIN1 (11741810_x_at) / RFU WNT11 (11732464_a_at) / Fold change /veh WNT11 (11732464_a_at) / RFU C10orf10 (11716521_a_at) / Fold change /veh C10orf10 (11716521_a_at) / RFU C5orf56 (11738089_at) / Fold change /veh C5orf56 (11738089_at) / RFU CYB561 (11721691_x_at) / Fold change /veh CYB561 (11721691_x_at) / RFU ANKRD19P (11752326_a_at) / Fold change /veh ANKRD19P (11752326_a_at) / RFU OR2T12 /// OR2T33 /// OR2T8 (11738714_s_at) / Fold change /veh OR2T12 /// OR2T33 /// OR2T8 (11738714_s_at) / RFU VCAN (11748164_a_at) / Fold change /veh VCAN (11748164_a_at) / RFU JSRP1 (11732532_at) / Fold change /veh JSRP1 (11732532_at) / RFU KRTAP10-11 (11738290_x_at) / Fold change /veh KRTAP10-11 (11738290_x_at) / RFU MYO3A (11730013_a_at) / Fold change /veh MYO3A (11730013_a_at) / RFU EBF3 (11725865_a_at) / Fold change /veh EBF3 (11725865_a_at) / RFU CAMK2N1 (11719241_x_at) / Fold change /veh CAMK2N1 (11719241_x_at) / RFU C5orf56 (11738088_a_at) / Fold change /veh C5orf56 (11738088_a_at) / RFU OLFML3 (11715873_a_at) / Fold change /veh OLFML3 (11715873_a_at) / RFU LOC100653217 /// NTM (11731650_a_at) / Fold change /veh LOC100653217 /// NTM (11731650_a_at) / RFU MAPK11 (11762145_a_at) / Fold change /veh MAPK11 (11762145_a_at) / RFU FIZ1 (11724087_x_at) / Fold change /veh FIZ1 (11724087_x_at) / RFU OASL (11726364_x_at) / Fold change /veh OASL (11726364_x_at) / RFU SOX15 (11748057_x_at) / Fold change /veh SOX15 (11748057_x_at) / RFU CD79A (11719716_a_at) / Fold change /veh CD79A (11719716_a_at) / RFU HIST1H1D (11736915_at) / Fold change /veh HIST1H1D (11736915_at) / RFU CASKIN2 (11723855_a_at) / Fold change /veh CASKIN2 (11723855_a_at) / RFU LOC730098 (11760151_x_at) / Fold change /veh LOC730098 (11760151_x_at) / RFU OR4N2 (11742367_at) / Fold change /veh OR4N2 (11742367_at) / RFU PRRT2 (11749266_a_at) / Fold change /veh PRRT2 (11749266_a_at) / RFU SNX32 (11753110_a_at) / Fold change /veh SNX32 (11753110_a_at) / RFU CDHR5 (11726645_a_at) / Fold change /veh CDHR5 (11726645_a_at) / RFU RCAN1 (11760418_a_at) / Fold change /veh RCAN1 (11760418_a_at) / RFU FAM167A (11723789_a_at) / Fold change /veh FAM167A (11723789_a_at) / RFU FAM26E (11764081_at) / Fold change /veh FAM26E (11764081_at) / RFU ISYNA1 (11749810_s_at) / Fold change /veh ISYNA1 (11749810_s_at) / RFU ACY1 (11761880_at) / Fold change /veh ACY1 (11761880_at) / RFU 11764098_at / Fold change /veh 11764098_at / RFU SAMD14 (11745864_x_at) / Fold change /veh SAMD14 (11745864_x_at) / RFU NPB (11741838_a_at) / Fold change /veh NPB (11741838_a_at) / RFU TMPRSS6 (11731388_a_at) / Fold change /veh TMPRSS6 (11731388_a_at) / RFU KRTAP10-2 (11738614_at) / Fold change /veh KRTAP10-2 (11738614_at) / RFU ARHGAP8 /// PRR5-ARHGAP8 (11727945_x_at) / Fold change /veh ARHGAP8 /// PRR5-ARHGAP8 (11727945_x_at) / RFU KRTAP5-7 /// NADSYN1 (11734609_at) / Fold change /veh KRTAP5-7 /// NADSYN1 (11734609_at) / RFU RASL12 (11751679_a_at) / Fold change /veh RASL12 (11751679_a_at) / RFU CDKN2B (11736163_a_at) / Fold change /veh CDKN2B (11736163_a_at) / RFU PRF1 (11729649_at) / Fold change /veh PRF1 (11729649_at) / RFU, ZNF638 /// ZNF638-IT1 / Fold change vs veh, ZNF638 /// ZNF638-IT1 / RFU, PANK3 / Fold change vs veh, PANK3 / RFU, SH3YL1 / Fold change vs veh, SH3YL1 / RFU, ZEB2 / Fold change vs veh, ZEB2 / RFU, NRIP1 / Fold change vs veh, NRIP1 / RFU, PTTG1IP / Fold change vs veh, PTTG1IP / RFU, CAPN2 / Fold change vs veh, CAPN2 / RFU, MED14 / Fold change vs veh, MED14 / RFU, SNORA58 / Fold change vs veh, SNORA58 / RFU, C1orf63 / Fold change vs veh, C1orf63 / RFU, LRRFIP1 / Fold change vs veh, LRRFIP1 / RFU, NDUFAF7 / Fold change vs veh, NDUFAF7 / RFU, SLC12A2 / Fold change vs veh, SLC12A2 / RFU, IBTK / Fold change vs veh, IBTK / RFU, ESF1 / Fold change vs veh, ESF1 / Fold change vs veh, TMEM50B / RFU, TAOK1 / Fold change vs veh, TAOK1 / RFU, ACBD3 / Fold change vs veh, ACBD3 / RFU, TMA16 / Fold change vs veh, TMA16 / RFU, RWDD3 / Fold change vs veh, RWDD3 / RFU, BCAT1 / Fold change vs veh, BCAT1 / RFU, EDEM3 / Fold change vs veh, EDEM3 / RFU, TMEM33 / Fold change vs veh, TMEM33 / RFU, WDR75 / Fold change vs veh, WDR75 / RFU, AHCTF1 / Fold change vs veh, AHCTF1 / RFU, TFRC / Fold change vs veh, TFRC / RFU, ZDHHC17 / Fold change vs veh, ZDHHC17 / RFU, NOM1 / Fold change vs veh, NOM1 / RFU, ARL8B / Fold change vs veh, ARL8B / RFU, ZBTB11 / Fold change vs veh, ZBTB11 / RFU, TAMM41 / Fold change vs veh, TAMM41 / RFU, KIAA1704 /// LOC100996395 / Fold change vs veh, KIAA1704 /// LOC100996395 / RFU, ING1 / Fold change vs veh, ING1 / RFU, TRMT61B / Fold change vs veh, TRMT61B / RFU, FUBP3 / Fold change vs veh, FUBP3 / RFU, TP53 / Fold change vs veh, TP53 / RFU, TNKS2 / Fold change vs veh, TNKS2 / RFU, ZFP14 / Fold change vs veh, ZFP14 / RFU, ACTR2 / Fold change vs veh, ACTR2 / RFU, PPP3R1 / Fold change vs veh, PPP3R1 / RFU, PIK3R1 / Fold change vs veh, PIK3R1 / RFU, HNRNPA1 / Fold change vs veh, HNRNPA1 / RFU, RNF170 / Fold change vs veh, RNF170 / RFU, ZNF28 / Fold change vs veh, ZNF28 / RFU, RNGTT / Fold change vs veh, RNGTT / RFU, OGT / Fold change vs veh, OGT / RFU, BRD1 / Fold change vs veh, BRD1 / RFU, MARS / Fold change vs veh, MARS / RFU, ZNF655 / Fold change vs veh, ZNF655 / RFU, FAHD1 / Fold change vs veh, FAHD1 / RFU, BDP1 / Fold change vs veh, BDP1 / RFU, LRRCC1 / Fold change vs veh, LRRCC1 / RFU, ARID1A / Fold change vs veh, ARID1A / RFU, ZNF146 / Fold change vs veh, ZNF146 / RFU, ZNF330 / Fold change vs veh, ZNF330 / RFU, GPN3 / Fold change vs veh, GPN3 / RFU, C9orf123 / Fold change vs veh, C9orf123 / RFU, N4BP2L2 / Fold change vs veh, N4BP2L2 / RFU, ARFIP1 / Fold change vs veh, ARFIP1 / RFU, FAM179B / Fold change vs veh, FAM179B / RFU, BCL10 / Fold change vs veh, BCL10 / RFU, UHRF1BP1L / Fold change vs veh, UHRF1BP1L / RFU, BET1 / Fold change vs veh, BET1 / RFU, CNOT2 / Fold change vs veh, CNOT2 / RFU, ZNF268 / Fold change vs veh, ZNF268 / Fold change vs veh, ZNF507 / RFU, DGCR2 / Fold change vs veh, DGCR2 / RFU, WDSUB1 / Fold change vs veh, WDSUB1 / Fold change vs veh, HSP90B1 /// MIR3652 / RFU, ADSS / Fold change vs veh, ADSS / RFU, GK / Fold change vs veh, GK / RFU, ZNF148 / Fold change vs veh, ZNF148 / RFU, TAF9 / Fold change vs veh, TAF9 / RFU, SLC1A5 / Fold change vs veh, SLC1A5 / RFU, SLMO2 / Fold change vs veh, SLMO2 / RFU, ABCC4 / Fold change vs veh, ABCC4 / RFU, LOC101060439 /// RAP1B / Fold change vs veh, LOC101060439 /// RAP1B / RFU, RFX7 / Fold change vs veh, RFX7 / RFU, GTPBP10 / Fold change vs veh, GTPBP10 / RFU, CNEP1R1 / Fold change vs veh, CNEP1R1 / RFU, BIVM-ERCC5 /// ERCC5 / Fold change vs veh, BIVM-ERCC5 /// ERCC5 / RFU, ILF3 / Fold change vs veh, ILF3 / RFU 11762660_at / Fold change /veh 11762660_at / RFU VCAN (11757783_s_at) / Fold change /veh VCAN (11757783_s_at) / RFU DDX43 (11728927_at) / Fold change /veh DDX43 (11728927_at) / RFU KRT8 (11758188_x_at) / Fold change /veh KRT8 (11758188_x_at) / RFU NKD1 (11759106_at) / Fold change /veh NKD1 (11759106_at) / RFU SRD5A1 (11742802_a_at) / Fold change /veh SRD5A1 (11742802_a_at) / RFU TPSAB1 /// TPSB2 (11721975_s_at) / Fold change /veh TPSAB1 /// TPSB2 (11721975_s_at) / RFU GSTM3 (11746129_a_at) / Fold change /veh GSTM3 (11746129_a_at) / RFU IL23R (11737362_x_at) / Fold change /veh IL23R (11737362_x_at) / RFU TMEM51 (11727254_a_at) / Fold change /veh TMEM51 (11727254_a_at) / RFU PIWIL2 (11732686_x_at) / Fold change /veh PIWIL2 (11732686_x_at) / RFU ORM1 (11744905_x_at) / Fold change /veh ORM1 (11744905_x_at) / RFU CCDC152 (11743942_at) / Fold change /veh CCDC152 (11743942_at) / RFU ECM1 (11717891_a_at) / Fold change /veh ECM1 (11717891_a_at) / RFU IL23R (11748794_a_at) / Fold change /veh IL23R (11748794_a_at) / RFU TNFAIP8L3 (11732012_x_at) / Fold change /veh TNFAIP8L3 (11732012_x_at) / RFU MBOAT4 (11741988_at) / Fold change /veh MBOAT4 (11741988_at) / RFU 11764193_at / Fold change /veh 11764193_at / RFU TMEM53 (11763286_at) / Fold change /veh TMEM53 (11763286_at) / RFU MAGEB2 (11727129_at) / Fold change /veh MAGEB2 (11727129_at) / RFU TMEM200A (11744735_a_at) / Fold change /veh TMEM200A (11744735_a_at) / RFU CCDC152 (11751479_a_at) / Fold change /veh CCDC152 (11751479_a_at) / RFU FAM211A (11726209_a_at) / Fold change /veh FAM211A (11726209_a_at) / RFU RGS16 (11746705_a_at) / Fold change /veh RGS16 (11746705_a_at) / RFU VCAN (11755009_s_at) / Fold change /veh VCAN (11755009_s_at) / RFU RHOB (11743442_s_at) / Fold change /veh RHOB (11743442_s_at) / RFU RGS16 (11720943_a_at) / Fold change /veh RGS16 (11720943_a_at) / RFU RGS16 (11720944_at) / Fold change /veh RGS16 (11720944_at) / RFU, VPS4B / Fold change vs veh, VPS4B / RFU, CREB1 / Fold change vs veh, CREB1 / RFU, DNAJC13 / Fold change vs veh, DNAJC13 / RFU, GNAQ / Fold change vs veh, GNAQ / RFU, CDK5R1 / Fold change vs veh, CDK5R1 / RFU, ZRANB3 / Fold change vs veh, ZRANB3 / RFU, CUL4A / Fold change vs veh, CUL4A / RFU, CCNY / Fold change vs veh, CCNY / RFU, UFL1 / Fold change vs veh, UFL1 / RFU, COG3 / Fold change vs veh, COG3 / RFU, DIAPH2 / Fold change vs veh, DIAPH2 / RFU, SKA2 / Fold change vs veh, SKA2 / RFU, AFF3 / Fold change vs veh, AFF3 / RFU, LMF1 / Fold change vs veh, LMF1 / RFU, IPO11 / Fold change vs veh, IPO11 / RFU, DFFB / Fold change vs veh, DFFB / RFU, FOXP1 / Fold change vs veh, FOXP1 / RFU, CARD8 / Fold change vs veh, CARD8 / RFU, STRN3 / Fold change vs veh, STRN3 / RFU, ADK / Fold change vs veh, ADK / RFU, RASSF2 / Fold change vs veh, RASSF2 / RFU, WIPF1 / Fold change vs veh, WIPF1 / RFU, LARP1B / Fold change vs veh, LARP1B / RFU, RASA1 / Fold change vs veh, RASA1 / RFU, RB1 / Fold change vs veh, RB1 / RFU, PPFIA1 / Fold change vs veh, PPFIA1 / RFU, MAT2A / Fold change vs veh, MAT2A / RFU, CCT5 / Fold change vs veh, CCT5 / RFU, WDR92 / Fold change vs veh, WDR92 / RFU, CUX1 / Fold change vs veh, CUX1 / RFU, TTC7A / Fold change vs veh, TTC7A / RFU, TMEM135 / Fold change vs veh, TMEM135 / RFU, DEPTOR / Fold change vs veh, DEPTOR / RFU, CPM / Fold change vs veh, CPM / RFU, DNAJB6 / Fold change vs veh, DNAJB6 / RFU, CACNA2D3 / Fold change vs veh, CACNA2D3 / RFU, DTX4 / Fold change vs veh, DTX4 / RFU, TFCP2 / Fold change vs veh, TFCP2 / RFU, GMCL1 /// GMCL1P1 / Fold change vs veh, GMCL1 /// GMCL1P1 / RFU, AEBP2 / Fold change vs veh, AEBP2 / RFU, SNHG1 /// SNORD22 /// SNORD25 /// SNORD26 /// SNORD27 /// SNORD28 /// SNORD29 /// SNORD31 / Fold change vs veh, SNHG1 /// SNORD22 /// SNORD25 /// SNORD26 /// SNORD27 /// SNORD28 /// SNORD29 /// SNORD31 / Fold change (Aza/veh), C12orf56 (ProbeSet 11735607_a_at) / Fold change (ACY-1035/veh), C12orf56 (ProbeSet 11735607_a_at) / Fold change (Aza/veh), FGFR1OP (ProbeSet 11751329_s_at) / Fold change (ACY-1035/veh), FGFR1OP (ProbeSet 11751329_s_at) / Fold change (Aza/veh), VPS36 (ProbeSet 11739960_a_at) / Fold change (ACY-1035/veh), VPS36 (ProbeSet 11739960_a_at) / RFU SYPL1 (11715823_x_at) / Fold change /veh SYPL1 (11715823_x_at) / RFU IGFBP7 (11715501_s_at) / Fold change /veh IGFBP7 (11715501_s_at) / RFU REEP3 (11722064_at) / Fold change /veh REEP3 (11722064_at) / RFU IGLL1 (11728026_x_at) / Fold change /veh IGLL1 (11728026_x_at): dose or concentration left out as unconfirmed
Conditions: MV-4-11 cells, 48 hours

Nc1ccc(-c2cccs2)cc1NC(=O)c1ccc2c(c1)cc(C1CC1)n2CCN1CCOCC1 [ACY-1035]
RFU ZSCAN30 (11745921_a_at): 7.88 RFU
